Each structure is given as a SMILES string. Where a name gives a salt, the structure may show the parent alone. Read-outs that look alike come from different tables or passages of the source.

The source of these data is US20100016328A1, “PTERIN ANALOGS” (BioMarin Pharmaceutical, Inc., priority 2007, published 2010).

For data set [1], the system named is human umbilical vein endothelial cells (HUVEC). Briefly: Nitric oxide production (nitrite+nitrate, Griess reaction) in NAS-pretreated HUVEC. The format is cell-based. The note with it: HUVEC pretreated with 3 mM NAS; for NO production (nitrite+nitrate): 50, 100, or 200 mM compound, 5-22 hours. The protocol: Cultured human umbilical vein endothelial cells (HUVEC) were pretreated with 3 mM N-acetylserotonin (NAS), an inhibitor of the enzyme sepiapterin reductase. Inhibition of this pathway typically results in loss of endogenous BH4, depressing the endogenous eNOS activity far below normal and provides an assay to test for restoration of eNOS activity.
Thus, subconfluent HUVECs were seeded in a 24-well plate and grown overnight in EGM2 medium (full growth medium). The next morning, fresh medium was added to the cells (300 μL/well), 3 mM NAS was added to the cells to decrease the endogenous BH4 levels. After an incubation of 1.5 hours, 50, 100, or 200 mM BH4 or compound of Example 5, Example 6, Example 7, or Example 9 were added to the cells. The cells were allowed to react with the BH4 or the compound of Example 5, Example 7, or Example 9 for 5-22 hours. The production of NO was then measured as changes in total (nitrite+nitrate) by the Griess reaction subsequent to nitrate reductase treatment. The percentage of nitrite+nitrate with BH4 or compound of Example 5, Example 7, or Example 9 is shown in FIG. 7 (after 5 hours); FIG. 8 (after 17 hours); and FIG. 9 (after 22 hours). The results for Example 6 are shown in FIG. 10 (after 5 hours) and FIG. 11 (after 20 hours).
A general note: Nitrite, measured by Griess reagent, commonly stands in for NO production.

A short description of data set [2]: Pharmacokinetics of BH4 and BH4 analogs given by oral gavage to monkeys. The format is in vivo. The settings on record: fasted cynomolgus monkeys; for Tmax: equivalent of 80 mg of BH4, n=3, standard deviation in parenthesis; for AUC0-t / Cmax: equivalent of 80 mg of BH4, n=3, plasma over 25 hours, standard deviation in parenthesis. How it is done:
Fasted cynomolgus monkeys were given BH4 and BH4 analogs by oral gavage (n=3), such that the amount of the analog administered was the equivalent of 80 mg of BH4. The plasma concentrations of the BH4, when administered directly, or the analogs was measured at various time points over a 25 hour period. The PK data is also shown in the following table, wherein the number in parenthesis is the standard deviation.

The nature of data set [3]: Stability in simulated gastric fluid. The format is in vitro ADME. The note with it: concentration of compound remaining over a 60 minute period; FIG. 5. The protocol: (§1) The stability of various compounds as disclosed herein were tested in human and rat and in simulated gastric fluid. Each compound was tested over an hour period for concentration of the compound remaining at each time point. The results are shown in FIGS. 3 (human plasma stability), 4 (rat plasma stability), and 5 (simulated gastric fluid stability) for the compounds of Example 2, 3, 4, and 20.

The nature of data set [4]: Stability in human plasma. The format is in vitro ADME. The note with it: concentration of compound remaining over a 60 minute period; FIG. 3. The protocol: as §1
Another data set can be described thus: Stability in rat plasma. The format is in vitro ADME. The note with it: concentration of compound remaining over a 60 minute period; FIG. 4. The protocol: as §1
On the set-up of data set [5]: species or system male Sprague Dawley rats. The note with it: male, Sprague Dawley, rat, in vivo, po. How it is done: This example allows for comparison of the pharmacokinetics of the analog (Compound I) versus that of BH4 following single oral administration in rats.
With respect to the administered BH4, the maximum total biopterin concentrations in plasma 2 hrs and 1 hr post-dosing were 108 ng/ml (i.e., about 3 fold the endogenous level) and 1227 ng/ml (i.e., about 30 fold the endogenous level), respectively. […] The ratio of reduced biopterin to total biopterins in plasma (i.e., the reduced-form ratio) was relatively static (73%-96%).

As to `C[C@H](OC(=O)[C@@H](N)CCCCN)[C@H](O)[C@H]1CNc2nc(N)[nH]c(=O)c2N1` [Example 7, 2,6-Diamino-hexanoic acid 2-(2-amino-4-oxo-3,4,5,6,7,8-hexahydro-pteridin-6-yl)-2-hydroxy-1-methyl-ethyl ester tri-hydrochloride], in data set [1], the “effect on NAS-treated cells compared with Example 5” value (shortened to “effect … compared with Example 5”) was “similar, if slightly reduced, effect” and the “NO production (nitrite+nitrate)” value was “increased NO production in a dose-dependent manner”. The Tmax in data set [2] (cynomolgus monkey, plasma, read-out: Tmax) amounted to 2.67 h. In addition, in data set [2], the AUC0-t is listed as 572 (148) ng hr/mL and the Cmax was 82.3 (27.2) ng/mL.
Take `CC(=O)O[C@@H]([C@H](C)OC(C)=O)[C@H]1CNc2nc(N)[nH]c(=O)c2N1C(C)=O` [Example 2, Acetic acid 2-acetoxy-1-(5-acetyl-2-amino-4-oxo-3,4,5,6,7,8-hexahydro-pteridin-6-yl)-propyl ester]: in data set [3], the “stability in simulated gastric fluid” value is reported as “high level of stability”. For the same compound, the “stability in human plasma” value in data set [4] was “high level of stability”. Moreover, the “stability in rat plasma” value in the data set “Stability in rat plasma” is “high level of stability”.
As to `CCC(C)[C@H](N)C(=O)O[C@@H](C)[C@H](O)[C@H]1CNc2nc(N)[nH]c(=O)c2N1` (stereo in doubt) [Example 6, 2-Amino-3-methyl-pentanoic acid 2-(2-amino-4-oxo-3,4,5,6,7,8-hexahydro-pteridin-6-yl)-2-hydroxy-1-methyl-ethyl ester], in data set [1], the “effect … compared with Example 5” value is “similar, if slightly reduced, effect” and the “NO production (nitrite+nitrate)” value is “increased NO production in a dose-dependent manner”.
Regarding `CCCC(=O)O[C@@H]([C@H](C)OC(=O)CCC)[C@H]1CNc2nc(N)[nH]c(=O)c2N1C(=O)CCC` [Example 4, Butyric acid 1-(2-amino-5-butyryl-4-oxo-3,4,5,6,7,8-hexahydro-pteridin-6-yl)-2-butyryloxy-propyl ester], the “stability in simulated gastric fluid” value in data set [3] is listed as “high level of stability”. In addition, the “stability in human plasma” value in data set [4] is on record as “high level of stability”. Moreover, the “stability in rat plasma” value in the data set “Stability in rat plasma” is reported as “high level of stability”.
In the case of `CCC(=O)O[C@@H]([C@H](C)OC(=O)CC)[C@H]1CNc2nc(N)[nH]c(=O)c2N1C(=O)CC` [Example 3, Propionic acid 1-(2-amino-4-oxo-5-propionyl-3,4,5,6,7,8-hexahydro-pteridin-6-yl)-2-propionyloxy-propyl ester], the “stability in simulated gastric fluid” value in data set [3] is on record as “high level of stability”. Besides, the “stability in human plasma” value in data set [4] is on record as “high level of stability”. Further, the “stability in rat plasma” value in “Stability in rat plasma” is listed as “high level of stability”.
Consider `C[C@H](OC(=O)[C@@H]1CCCN1)[C@H](O)[C@H]1CNc2nc(N)[nH]c(=O)c2N1` [Example 9, Pyrrolidine-2-carboxylic acid 2-(2-amino-4-oxo-3,4,5,6,7,8-hexahydro-pteridin-6-yl)-2-hydroxy-1-methyl-ethyl ester dihydrochloride], for which, in data set [1], the “effect … compared with Example 5” value was “similar, if slightly reduced, effect” and the “NO production (nitrite+nitrate)” value is on record as “increased NO production in a dose-dependent manner”. In data set [2], the AUC0-t is given as 384 (214) ng hr/mL, the Cmax is reported as 61.9 (34.8) ng/mL and the Tmax is on record as 2.0 (0)^ hr.
Take `C[C@H](O)[C@H](O)[C@H]1CNc2nc(N)[nH]c(=O)c2N1C(=O)OCc1ccccc1` (stereo in doubt) [Example 20, 2-Amino-6-(1,2-dihydroxy-propyl)-4-oxo-4,6,7,8-tetrahydro-1H-pteridine-5-carboxylic acid benzyl ester]: the “stability in simulated gastric fluid” value in data set [3] is “high level of stability”. Moreover, in data set [4], the “stability in human plasma” value is reported as “high level of stability”. For the same compound, the “stability in rat plasma” value in “Stability in rat plasma” is given as “high level of stability”.
For the compound `C[C@H](O)[C@H](O)[C@H]1CNc2nc(N)[nH]c(=O)c2N1` [BH4, Tetrahydrobiopterin], in data set [5], the “ratio of reduced biopterin to total biopterins in plasma (reduced-form ratio)” value was 73-96%. In data set [5] (10 mg/kg), the “maximum total biopterin concentration relative to the endogenous level” value is listed as “about 3 fold”, the “time of maximum total biopterin concentration post-dosing” value was determined as 2 h and the “time of return to the endogenous level post-dosing” value amounted to 9 h. Besides, in data set [5] (100 mg/kg), the “maximum total biopterin concentration relative to the endogenous level” value was “about 30 fold”, the “time of maximum total biopterin concentration post-dosing” value stood at 1 h and the “time of return to the endogenous level post-dosing” value stood at 24 h. In data set [2], the AUC0-t is given as 288 (15.5) ng hr/mL, the Cmax is on record as 42.0 (12.6) ng/mL and the Tmax is 3.0 (0)^ hr.
